Reference: ChEMBL document CHEMBL3734690, “Design, Synthesis, and Biological Evaluation of Indole Biphenylcarboxylic Acids as PPARγ Antagonists” (ACS Med Chem Lett, 2015)

Experiments:
in vivo [1] = details: mouse, plasma, po, 20 mg/kg
Description: Plasma concentration in mouse at 20 mg/kg, po after 2 hrs

in vivo [2] = details: mouse, plasma, po, 20 mg/kg; remark: listed apart in the source
Description: Plasma concentration in mouse at 20 mg/kg, po after 6 hrs

| concentration at 2 h (in vivo [1]) [nM] | concentration at 6 h (in vivo [2]) [nM] | Compound |
| --- | --- | --- |
| 2500 | 100 | Cc1c(C)n(Cc2ccc(-c3ccccc3C(N)=O)cc2)c2ccc(C(=O)N[C@@H](C)c3cccc(C(C)C)c3)cc12 |
| 5600 | 1900 | Cc1c(C)n(Cc2ccc(-c3ccccc3C(=O)O)cc2)c2ccc(C(=O)N[C@@H](C)c3ccc(C(C)(C)C)cc3)cc12 |
| 200 | 10 | Cc1c(C)n(Cc2ccc(-c3ccccc3-c3n[nH]c(=O)o3)cc2)c2ccc(C(=O)N[C@@H](C)c3cccc(C(C)C)c3)cc12 |
| 19000 | 2400 | Cc1c(C)n(Cc2ccc(-c3ccccc3C(=O)O)cc2)c2ccc(C(=O)N[C@@H](C)c3cccc(C4CC4)c3)cc12 |
| 400 | 30 | Cc1c(C)n(Cc2ccc(-c3ccccc3C(=O)NO)cc2)c2ccc(C(=O)N[C@@H](C)c3cccc(C(C)C)c3)cc12 |
